c1ccc2[nH]c(-c3cscn3)nc2c1
solubility (mole fraction)
Conditions	283.15 K	288.15 K	293.15 K	298.15 K	303.15 K	308.15 K	313.15 K	318.15 K	323.15 K
in acetonitrile	0.000106	0.000125	0.00015	0.000177	0.000213	0.000259	0.0003	0.000353	0.000419
in isopropanol	0.000682	0.000785	0.000915	0.00103	0.00121	0.00137	0.00155	0.00174	0.00193
in methanol	0.0013	0.00147	0.00163	0.00181	0.002	0.00223	0.00248	0.00273	0.00297
in n-propanol	0.00136	0.00156	0.00177	0.002	0.00225	0.00252	0.00282	0.00314	0.00347
in water	2.04e-07	2.67e-07	3.42e-07	4.23e-07	5.25e-07	6.68e-07	8.6e-07	1.08e-06	1.36e-06

— BigSolDB 2.1
